Data set [1] deals with S. pneumoniae DSM20566 biofilm. In words: Biofilm inhibition assay. It counts as cell-based, Streptococcus pneumoniae DSM20566. The settings on record: Streptococcus pneumoniae, DSM20566; 50 μM; read-out: Inhibition of biofilm formation at the maximum tested concentration.
The target in data set [2] is T1, S. pneumoniae DSM20566 NA (NanA) (Streptococcus pneumoniae, UniProt P62575).
T1 construct: host or cells: either rNanA from E. coli BL21(DE3) or total precipitated protein of S. pneumoniae DSM20566
T1 sequence (P62575 54-1035): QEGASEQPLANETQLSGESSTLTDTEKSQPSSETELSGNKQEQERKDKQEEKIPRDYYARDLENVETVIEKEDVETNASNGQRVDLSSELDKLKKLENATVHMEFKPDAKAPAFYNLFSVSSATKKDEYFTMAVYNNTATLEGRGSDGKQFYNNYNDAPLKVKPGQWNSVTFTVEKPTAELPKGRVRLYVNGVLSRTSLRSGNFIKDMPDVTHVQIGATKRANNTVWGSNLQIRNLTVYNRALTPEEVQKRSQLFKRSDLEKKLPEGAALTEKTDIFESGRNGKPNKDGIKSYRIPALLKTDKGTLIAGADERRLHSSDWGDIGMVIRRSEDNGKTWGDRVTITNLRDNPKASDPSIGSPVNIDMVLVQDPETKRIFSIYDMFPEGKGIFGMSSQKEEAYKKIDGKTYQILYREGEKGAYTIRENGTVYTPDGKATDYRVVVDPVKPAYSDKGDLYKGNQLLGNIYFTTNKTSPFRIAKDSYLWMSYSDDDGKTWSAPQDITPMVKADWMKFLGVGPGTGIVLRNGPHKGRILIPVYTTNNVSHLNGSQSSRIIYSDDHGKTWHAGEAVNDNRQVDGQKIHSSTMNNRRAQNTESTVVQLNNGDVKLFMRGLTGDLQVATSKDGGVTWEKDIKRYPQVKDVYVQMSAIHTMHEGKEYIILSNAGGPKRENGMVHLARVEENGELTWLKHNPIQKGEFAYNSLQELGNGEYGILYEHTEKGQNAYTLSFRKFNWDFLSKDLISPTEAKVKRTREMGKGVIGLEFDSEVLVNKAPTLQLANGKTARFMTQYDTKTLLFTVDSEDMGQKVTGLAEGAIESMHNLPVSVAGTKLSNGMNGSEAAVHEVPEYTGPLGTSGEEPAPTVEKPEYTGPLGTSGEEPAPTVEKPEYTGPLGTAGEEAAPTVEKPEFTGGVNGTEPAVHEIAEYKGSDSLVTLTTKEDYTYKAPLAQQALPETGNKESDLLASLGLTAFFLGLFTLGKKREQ
In words: FL NA inhibition assay, S. pneumoniae DSM20566. Format: biochemical.

Data set [3] can be described thus: in vitro. The settings on record: dog.
In data set [4] the test system is 8178/09-, WSN/33-, or HK/68-induced cytopathic effect. The data set can be described thus: CPE inhibition assay (viruses not separated). It counts as cell-based. The settings on record: Influenza A virus, MDCK, read-out: IC50 of inhibition of the 8178/09-, WSN/33-, or HK/68-induced cytopathic effect. (Cytopathic effects are the visible damage that an infection or toxin causes in cultured cells.)

Data set [5] deals with human erythrocytes. Format: cell-based. As to the method: (§1) Viral (whole virus) and bacterial NA activity as well as their inhibition were measured by using a fluorescence (FL) assay with the substrate 2′-(4-methylumbelliferyl)-α-D-N-acetylneuraminic acid sodium salt hydrate (MUNANA, 100 μM; Sigma-Aldrich GmbH, Taufkirchen, Germany), and/or a hemagglutination (HA)-based NA inhibition assay (HA assay) with human erythrocytes (Institute of Transfusion Medicine, University Hospital Jena, Jena, Germany), both assays as published recently (Richter et al., [2015]). Recombinant NanA (rNanA) and total precipitated bacterial protein of S. pneumoniae DSM20566 were used in FL and HA assays. Interference of the compounds with the FL signal (self-fluorescence and quenching) was excluded as described previously (Richter et al., [2015]). […] Each compound was tested at least three times in both NA inhibition assays.
Supplementary Table 1. […]
eTest compounds lysed the human erythrocytes (4 h at 37°C and 12 h at 4°C).

Data set [6] relates to IAV 5258/09 NA. In words: Hemagglutination (HA)-based NA inhibition assay, IAV 5258/09. The settings on record: human erythrocytes. It counts as cell-based, influenza A virus A/Jena/5258/2009 (H1N1).
For data set [7], the target named is IAV WSN/33 NA-wt (whole virus) (Influenza A virus, UniProt P03470). In words: biochemical. Set-up: species or system influenza A virus A/WSN/1933 (H1N1). As to conditions: for IC50: NA inhibition using FL assay IC50, IAV WSN/33.
Sequence of IAV WSN/33 NA-wt (whole virus) (P03470 whole entry, looked up): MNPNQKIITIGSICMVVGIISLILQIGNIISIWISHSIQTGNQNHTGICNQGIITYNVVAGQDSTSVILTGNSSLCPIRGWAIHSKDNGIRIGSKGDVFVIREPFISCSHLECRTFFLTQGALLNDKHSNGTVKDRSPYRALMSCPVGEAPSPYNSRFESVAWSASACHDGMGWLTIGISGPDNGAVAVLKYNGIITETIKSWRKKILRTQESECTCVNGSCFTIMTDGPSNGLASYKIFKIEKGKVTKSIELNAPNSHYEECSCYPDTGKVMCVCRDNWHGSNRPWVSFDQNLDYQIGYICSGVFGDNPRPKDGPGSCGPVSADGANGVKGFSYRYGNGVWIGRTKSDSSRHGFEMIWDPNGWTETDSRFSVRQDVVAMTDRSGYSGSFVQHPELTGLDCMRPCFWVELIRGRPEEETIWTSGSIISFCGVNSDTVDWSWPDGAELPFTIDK
The test system of data set [8] is influenza A virus 8178/09. The data set can be described thus: microbe, parasite or virus in culture. As to conditions: Influenza A virus, MDCK, 48 h, read-out: 50% inhibitory concentration, influenza A virus 8178/09. Format: cell-based, influenza A virus A/Jena/8178/2009 (H1N1).
Data set [9] deals with T2, S. pneumoniae DSM20566 NA (Streptococcus pneumoniae, UniProt P62575).
T2 construct: host or cells: either rNanA from E. coli BL21(DE3) or total precipitated protein of S. pneumoniae DSM20566
T2 sequence (P62575 54-1035): as the sequence (P62575 54-1035) above
In words: HA-based NA inhibition assay, S. pneumoniae DSM20566. It counts as cell-based.

Data set [10] concerns influenza A virus HK/68. The data set can be described thus: microbe, parasite or virus in culture. It counts as cell-based, influenza A virus A/Hong Kong/68 (H3N2). As to conditions: Influenza A virus, MDCK, 48 h, read-out: 50% inhibitory concentration, influenza A virus HK/68.
In data set [11] the test system is human erythrocytes. It counts as cell-based. As for the experimental part:
as §1
Supplementary Table 1. Assay interference phenomena of test compounds in the HA-based […]
sample concentrations [µM] in viral HA-assay bacterial HA-assay […]
hem- prevention of erythrocyte hem- erythrocyte agglutinationa virus-induced lysisc agglutinationd lysise […]
cTest compounds lysed the human erythrocytes (2 h at 4°C). […]
This is another data set of the same source.

Data set [12] relates to influenza A virus WSN/33. The data set can be described thus: microbe, parasite or virus in culture. It counts as cell-based, influenza A virus A/WSN/1933 (H1N1). As to conditions: Influenza A virus, WSN, MDCK, 48 h, read-out: 50% inhibitory concentration, influenza A virus WSN/33.
Data set [13] has as its system S. pneumoniae DSM20566. The data set can be described thus: Microtiter broth microdilution assay, planktonic growth. Format: cell-based, Streptococcus pneumoniae DSM20566. As to conditions: Streptococcus pneumoniae, DSM20566; 18 h, maximum 50 μM; read-out: 50% inhibitory concentration, S. pneumoniae DSM20566 planktonic growth. In general terms: In broth dilution the organism is exposed to a series of concentrations in liquid medium.

Data set [14] has as its target IAV HK/68 NA (whole virus) (Influenza A virus, UniProt Q91MA2). In words: biochemical. The settings on record: NA inhibition using FL assay IC50, IAV HK/68. The arrangement: species or system influenza A virus A/Hong Kong/68 (H3N2).
Data set [15] deals with S. pneumoniae DSM20566. In words: Bactericidal or bacteriostatic activity (subculture on blood agar). As to conditions: for cfu per agar plate: 18 h, then subculture. Format: cell-based, Streptococcus pneumoniae DSM20566.
[16] abbreviates: MUNANA substrate, read-out: NA inhibition using FL assay IC50, S. p. DSM20566.
Where [17] appears, read: human erythrocytes, 4 h at 37°C and 12 h at 4°C.

Where two headings read alike, the source gives them in different places. A value given as a limit tells only on which side of the number the result lay.

Sequence of IAV HK/68 NA (whole virus) (Q91MA2 whole entry, looked up): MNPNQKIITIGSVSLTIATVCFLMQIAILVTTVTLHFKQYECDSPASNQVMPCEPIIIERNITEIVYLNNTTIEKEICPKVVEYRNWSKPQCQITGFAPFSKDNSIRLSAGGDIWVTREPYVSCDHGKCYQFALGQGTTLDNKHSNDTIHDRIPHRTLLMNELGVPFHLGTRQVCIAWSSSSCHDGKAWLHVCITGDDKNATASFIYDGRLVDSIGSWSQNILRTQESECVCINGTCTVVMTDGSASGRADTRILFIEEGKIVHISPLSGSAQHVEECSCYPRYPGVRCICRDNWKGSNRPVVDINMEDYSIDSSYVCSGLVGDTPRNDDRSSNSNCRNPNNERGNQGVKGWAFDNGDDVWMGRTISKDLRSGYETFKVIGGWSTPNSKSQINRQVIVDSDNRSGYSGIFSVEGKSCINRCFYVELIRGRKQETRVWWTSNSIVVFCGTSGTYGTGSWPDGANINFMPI

Consider `O=S(=O)(O)c1ccc(/N=N/c2ccc(/N=N/c3ccc(O)c4ccccc34)cc2)cc1` [Compound 6], for which the inhibition at 50 µM in data set [1] stood at 46%. In addition, the IC50 in [2] (setting [16]) was 1.18 ± 0.55 µM; in [4], less than 15 µM; in data set [7] it was 36.4 ± 4.2 µM; in data set [8], 10.6 ± 0.71 µM; in data set [10] it was 20.8 ± 1.99 µM; in data set [12] it was 24.2 ± 9.78 µM. Also, the IC50 stood at 6.14 ± 0.61 µM in data set [13] and 83.4 ± 3.67 µM in data set [14]. Further, the CC50 in [3] is more than 100 µM. In addition, the “sample concentrations provoking erythrocyte lysis, bacterial HA-assay” value in data set [5] (setting [17]) is recorded as “no”. Moreover, in data set [6], the “NA inhibition using HA assay MIC, IAV 5258/09” value (“NA inhibition … IAV 5258/09” below) stood at 24.40 ± 12.47 µM. For the same compound, the “NA inhibition using HA assay MIC, S. p. DSM20566” value (shortened to “NA inhibition … S. p. DSM20566”) in data set [9] (human erythrocytes) is “Not active^c”. Besides, the “sample concentrations provoking erythrocyte lysis, viral HA-assay” value in data set [11] (human erythrocytes, 2 h at 4°C) is given as “no”.
With `COc1cc(/N=N/c2ccc(S(=O)(=O)O)cc2)ccc1/N=N/c1c(O)ccc2ccccc12` [Compound 7], the inhibition at 50 µM in data set [1] came to 46%. Also, the IC50 in data set [2] (setting [16]) is 5.6 ± 3.01 µM; in [4], less than 15 µM; in data set [7], 4.25 ± 1.25 µM; in [8] it was 3.28 ± 2.19 µM; in [10], 4.22 ± 0.98 µM; in data set [12] it was 78.6 ± 16.2 µM. Also, the values for the IC50 in data set [13] and in data set [14] were 3.32 ± 0.72 µM and 87.2 ± 8.03 µM, respectively. The CC50 in data set [3] was more than 100 µM. Also, the “sample concentrations provoking erythrocyte lysis, bacterial HA-assay” value in data set [5] (setting [17]) was “no”. Moreover, the “NA inhibition … IAV 5258/09” value in data set [6] is listed as “Not active^c”. In addition, the “NA inhibition … S. p. DSM20566” value in data set [9] (human erythrocytes) was “Not active^c”. Besides, in data set [11] (human erythrocytes, 2 h at 4°C), the “sample concentrations provoking erythrocyte lysis, viral HA-assay” value is recorded as “no”.
As for `O=S(=O)(O)c1ccc2c(/N=N/c3ccc(Sc4ccc(/N=N/c5c(O)ccc6cc(S(=O)(=O)O)ccc56)cc4)cc3)c(O)ccc2c1` [Compound 2], the inhibition at 50 µM in data set [1] was found to be 47%. In addition, the IC50 is 1.85 ± 0.1 µM in data set [2] (NA inhibition using FL assay IC50, S. p. DSM20566); less than 15 µM in [4]; 9.09 ± 1.94 µM in [8]; 6.19 ± 4.62 µM in data set [10]; 11.8 ± 3.19 µM in data set [12]; 4.59 ± 2.45 µM in data set [13]. In addition, the IC50 in data set [14] was 83 ± 5.67 µM. This compound also gave a CC50 in data set [3] of more than 100 µM. In addition, the “sample concentrations provoking erythrocyte lysis, bacterial HA-assay” value in data set [5] was “no”. Further, the “Activity (bactericidal or bacteriostatic)” value in data set [15] (25 µM) and in [15] (50 µM) was “bacteriostatic” in each case. For the same compound, the “cfu per agar plate” value in [15] (25 µM) and in data set [15] (50 µM) was more than 150 in each case. In [9], the “NA inhibition … S. p. DSM20566” value turned out to be 10.00 ± 0.00 µM. Also, the “sample concentrations provoking erythrocyte lysis, viral HA-assay” value in data set [11] was “no”.
On to `Cc1ccccc1/N=N/c1ccc(/N=N/c2c(O)ccc3cc(S(=O)(=O)O)ccc23)c(C)c1` [Compound 4], for which the inhibition at 50 µM in data set [1] is 46%. Further, the IC50 is 4.79 ± 1.31 µM in data set [2] (setting [16]); less than 15 µM in data set [4]; 12.1 ± 4.83 µM in data set [8]; 13.2 ± 3.11 µM in [10]; 14 ± 2.68 µM in data set [12]; 12 ± 6.81 µM in [13]. Further, the IC50 in data set [14] was determined as 71.1 ± 22 µM. This compound registered a CC50 in data set [3] of more than 100 µM. Besides, the “sample concentrations provoking erythrocyte lysis, bacterial HA-assay” value in [5] (setting [17]) came out at 100 µM. In addition, in data set [6], the “NA inhibition … IAV 5258/09” value is given as “Not active^c”. Also, in data set [7], the “NA inhibition using FL assay IC50, IAV WSN/33” value is given as “Not active”. For the same compound, the “NA inhibition … S. p. DSM20566” value in [9] (human erythrocytes) is given as “Not active^c”. The “sample concentrations provoking erythrocyte lysis, viral HA-assay” value in [11] (human erythrocytes, 2 h at 4°C) was “no”.

The values above are taken from article PMC5309245, “Discovery and Characterization of Diazenylaryl Sulfonic Acids as Inhibitors of Viral and Bacterial Neuraminidases” (Frontiers in Microbiology, 2017).
